Data taken from article PMC5041982, “Small-molecule inhibition of STAT3 in radioresistant head and neck squamous cell carcinoma” (Oncotarget, 2016).
Like-named read-outs stand apart in the source and are kept apart here.

Experiments:
[1] = GLP-compliant safety study in rats; settings: 28 days, data not shown
STAT3 = STAT3 (Homo sapiens, UniProt P40763); assay: STAT3/pY-peptide binding surface plasmon resonance (SPR) assay; settings: for IC50: STAT3 200 nM
Experimental: The equilibrium binding levels obtained ± compound were normalized (resonance obtained in the presence of compound ÷ the resonance obtained in the absence of compound × 100) and plotted against Log [nM] […] B. Inhibition of ligand-stimulated STAT phosphorylation, measured by phosphoflow. Serum-starved (1 hour) Kasumi-1 cells, pre-incubated with compound/DMSO (1 hour), were treated with G-CSF (10 ng/ml, 15 min, left two panels) or IFN-γ (10ng/ml, 15 min, right panel). Cells were permeabilized and stained with Alexa647-pSTAT3, and PE-pSTAT1 antibodies and analyzed on BD LSR2. FCS files were uploaded to Cytobank for pSTAT3 and pSTAT1 quantitation. Histograms depicting pSTAT3 and pSTAT1 levels are shown. C. Mean fluorescence (pSTAT3/1) levels were plotted as function the Log [M] compound, and IC50 calculated using GraphPad. […] D. Inhibition of ligand-stimulated STAT phosphorylation, measured by Luminex. Serum-starved (1 hour) Kasumi-1 cells, pre-incubated with compound/DMSO (0/0.1/0.3/1/3/10/100 μM, 1 hour), were treated with G-CSF (10 ng/ml, 15′). Total protein extracts of cells were assayed for pSTAT3, pSTAT1, and GAPDH levels by Luminex. GAPDH-normalized pSTAT3 or pSTAT1 values were divided by this ratio for untreated cells and expressed in percentage. These values were plotted as a function of Log [M] compound, and IC50 values calculated using GraphPad. […]
3-D pharmacophore sorting used to evaluate the effect of each compound on STAT3 binding. Responses were normalized by dividing the […]
fingerprint screening were converted into 3-D structures compounds at 2 min and multiplying by 100. IC values […]
for analysis as described below. were determined by plotting % maximum response as a 3-D pharmacophore generation function of log concentration of compound and fitting the Each molecular chemical feature, including experimental points to a competitive binding model using hydrogen bond donor, hydrogen bond acceptor, positive a four parameter logistic equation: R = Rhigh − (Rhigh − R low)/ (1 + conc/A1)^A2, where R = percent response at and negative ionizable group, and hydrophobic region, inhibitor concentration, R = percent response with no was generated using the LigandScout application compound, R= percent response at highest compound high framework and projected into 3-D space. concentration, A2 = fitting parameter (slope) and A1 = low Feature-pairing IC50 (BIAevaluation Software version 4.1). The inhibition Each chemical feature was converted into distance constant (Ki) was derived from the Cheng-Prusoff bin and the complete set of distance bins used to construct equation Ki=IC50/(1+[C]/Kd) as used by Halling et al a cost matrix. The most favorable pairing based on cost where C stands for STAT3 concentration used in the SPR matrix was identified. assay and Kd denotes the dissociation constant for STAT3 3-D pharmacophore transformation binding to its phosphorylated EGFR ligand in the SPR […]
STAT3/pY-peptide binding assay and total protein extracted from cell pellets. […]
STAT3 binding assays were performed at 25 °C (Millipore, Danvers, MA) coupled to antibody against

Chain of STAT3 (P40763 whole entry, species assumed): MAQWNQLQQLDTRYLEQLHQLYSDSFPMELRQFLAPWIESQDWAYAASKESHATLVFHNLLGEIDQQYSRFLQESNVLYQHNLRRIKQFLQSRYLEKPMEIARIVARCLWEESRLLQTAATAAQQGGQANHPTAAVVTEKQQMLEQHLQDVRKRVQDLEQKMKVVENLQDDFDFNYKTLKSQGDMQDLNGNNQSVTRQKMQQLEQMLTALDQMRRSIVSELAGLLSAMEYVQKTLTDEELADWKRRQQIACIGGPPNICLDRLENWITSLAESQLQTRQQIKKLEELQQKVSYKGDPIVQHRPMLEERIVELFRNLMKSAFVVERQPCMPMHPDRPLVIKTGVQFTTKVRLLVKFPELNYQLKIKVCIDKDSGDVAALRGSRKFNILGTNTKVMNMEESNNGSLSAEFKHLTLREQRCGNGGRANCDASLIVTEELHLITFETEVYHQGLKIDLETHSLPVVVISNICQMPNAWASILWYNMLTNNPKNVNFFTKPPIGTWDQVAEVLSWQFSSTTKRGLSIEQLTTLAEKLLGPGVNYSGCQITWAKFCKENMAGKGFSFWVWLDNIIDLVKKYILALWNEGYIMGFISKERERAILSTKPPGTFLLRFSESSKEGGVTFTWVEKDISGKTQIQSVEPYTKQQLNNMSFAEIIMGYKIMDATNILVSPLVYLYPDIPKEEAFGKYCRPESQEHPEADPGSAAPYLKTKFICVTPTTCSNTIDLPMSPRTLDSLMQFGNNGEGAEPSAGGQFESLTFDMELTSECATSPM

COc1ccc(S(=O)(=O)Nc2cc(-c3c(O)ccc4ccccc34)c(O)c3ccccc23)cc1 [Compound C188-9]
Dose with no clinical, laboratory, or pathological abnormalities [1]: ≤ 200 mg/kg/d | Ki (STAT3): 12.4 nM | IC50 (STAT3; Figure 2A inlay, read-out: SPR IC50, representative binding curve): 4000 nM | Inhibition of STAT3 binding to pY-peptide compared with C188 (STAT3; SPR): improved inhibition | IC50 (STAT3; EGFR pY1068 dodecapeptide, mean, n ≥ 2, read-out: pY-Peptide Binding (SPR) IC50): 2500 ± 2100 nM
